Structures can show the parent of a compound that is named as a salt.
Columns and labels:
[1] = tested on: M.MpeI DNA methyltransferase; test: Restriction protection assay after M.MpeI-directed DNA modification (agarose gel); format: biochemical; settings: pUC19 DNA, Cutsmart buffer, 60° C., 1 hour; restriction enzyme HhaI 1 hour; Ethidium bromide
Procedure: Cytosine DNA modification by M.MpeI DNA methyltransferase: […] DNA methyltransferase targets the two-base recognition sequence 5′-CG-3′ and modifies the underlined cytosine residue and was combined with (8-Azido-oct-2-ene)(5′-Deoxyadenosyl)-(L-Cysteine)sulfonium salt (see example 9 for preparation). The methyltransferase enzyme and cofactors were incubated with pUC19 DNA in “Cutsmart buffer” at 60° C. for 1 hour. To determine if protection occurred the DNA was incubated with the corresponding restriction enzyme (HhaI) for 1 hour. Afterwards, the remaining proteins were digested with Proteinase K. The DNA samples are then placed on an agarose gel and visualized with Ethidium bromide (FIG. 3).

[2] = target: M.TaqI DNA methyltransferase (Thermus aquaticus, UniProt P14385); test: Restriction protection assay after M.TaqI-directed DNA modification (agarose gel); format: biochemical; settings: pUC19 DNA, Cutsmart buffer, 60° C., 1 hour; restriction enzyme TaqaI 1 hour; Ethidium bromide
Procedure: Adenine-N6 DNA modification by M.TaqI DNA methyltransferase: […] DNA methyltransferase targets the four-base recognition sequence 5′-TCGA-3′ and modifies the underlined adenine residue at the N6-position and was combined with (6-Azido-hex-2-yne)(5′-Deoxyadenosyl)-(L-Cysteine)sulfonium salt (see example 9 for preparation). The methyltransferase enzyme and cofactors were incubated with pUC19 DNA in “Cutsmart buffer” at 60° C. for 1 hour. To determine if protection occurred the DNA was incubated with the corresponding restriction enzyme (TaqaI) for 1 hour. Afterwards, the remaining proteins were digested with Proteinase K. The DNA samples are then placed on an agarose gel and visualized with Ethidium bromide (FIG. 1).
Adenine-N6 DNA modification by M.TaqI DNA methyltransferase: […] DNA methyltransferase targets the four-base recognition sequence 5′-TCGA-3′ and modifies the underlined adenine residue at the N6-position and was combined with Rhodamine sulfonium salt (see example 12 for preparation). The methyltransferase enzyme and cofactors were incubated with pUC19 DNA in “Cutsmart buffer” at 60° C. for 1 hour. To determine if protection occurred the DNA was incubated with the corresponding restriction enzyme (TaqaI) for 1 hour. […]

plasmid DNA = test: Super resolution microscopy of fluorescently labeled DNA; settings: FIG. 5 panel C; DNA spin coated on poly-L-lysine coated cover slips
Procedure: Adenine-N6 DNA modification by M.TaqI DNA methyltransferase: […] DNA methyltransferase targets the four-base recognition sequence 5′-TCGA-3′ and modifies the underlined adenine residue at the N6-position and was combined with Rhodamine sulfonium salt (see example 12 for preparation). The methyltransferase enzyme and cofactors were incubated with pUC19 DNA in “Cutsmart buffer” at 60° C. for 1 hour. To determine if protection occurred the DNA was incubated with the corresponding restriction enzyme (TaqaI) for 1 hour. Afterwards, the remaining proteins were digested with Proteinase K. DNA samples are then placed on an agarose gel and visualized with Ethidium bromide (FIG. 4).
Fluorescent DNA was purified using DNA Cleaner & Concentrator 5 columns (Zymo Research), and the DNA was spin coated on poly-L-lysine coated cover slips and used directly for microscopy studies. (FIG. 5)

Sequence of M.TaqI DNA methyltransferase (P14385 whole entry): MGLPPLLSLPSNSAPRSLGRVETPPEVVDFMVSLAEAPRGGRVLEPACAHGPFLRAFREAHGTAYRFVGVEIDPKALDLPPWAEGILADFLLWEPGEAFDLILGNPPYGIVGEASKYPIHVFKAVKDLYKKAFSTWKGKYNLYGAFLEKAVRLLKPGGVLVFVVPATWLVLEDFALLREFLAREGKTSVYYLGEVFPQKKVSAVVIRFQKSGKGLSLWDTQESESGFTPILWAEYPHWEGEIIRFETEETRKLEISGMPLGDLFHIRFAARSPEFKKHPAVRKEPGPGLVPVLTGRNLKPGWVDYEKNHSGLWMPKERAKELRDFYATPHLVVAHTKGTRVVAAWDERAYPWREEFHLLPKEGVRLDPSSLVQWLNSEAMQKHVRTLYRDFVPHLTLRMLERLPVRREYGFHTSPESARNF

## [N-]=[N+]=NCCCCCC=CC[S+](C[C@H](N)C(=O)O)C[C@H]1O[C@@H](n2cnc3c(N)ncnc32)[C@H](O)[C@@H]1O (stereo partly drawn) [(8-Azido-oct-2-ene)(5′-Deoxyadenosyl)-(L-Cysteine)sulfonium salt]
[1]
  Protection of DNA against cutting by restriction enzyme (band pattern on agarose gel): 1 strong band, corresponding to uncut DNA

## [N-]=[N+]=NCCCC#CC[S+](C[C@H](N)C(=O)O)C[C@H]1O[C@@H](n2cnc3c(N)ncnc32)C(O)C1O (stereo partly drawn) [(6-Azido-hex-2-yne)(5′-Deoxyadenosyl)-(L-Cysteine)sulfonium Salt]
[2]
  Protection of DNA against cutting by restriction enzyme (band pattern on agarose gel): 1 strong band, corresponding to uncut DNA

## CCN(CC)c1ccc2c(-c3ccccc3C(=O)N(C)CCC(=O)NCCCCC/C=C/C[S+](C[C@H](N)C(=O)O)C[C@H]3O[C@@H](n4cnc5c(N)ncnc54)[C@@H](O)C3O)c3ccc(=[N+](CC)CC)cc-3oc2c1 (stereo partly drawn) [Rhodamine sulfonium salt]
Plasmid DNA
  Colocalization of the dye with a DNA intercalating dye (fluorescent DNA labeling): successful fluorescent DNA labeling

Source: patent publication US20170283453A1, “COFACTOR ANALOGUES FOR METHYLTRANSFERASES” (KATHOLIEKE UNIVERSITEIT LEUVEN, priority 2014, published 2017)
